According to ChEMBL document CHEMBL1201862, “PubChem BioAssay data set” (2004):
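Interpolation was linear, between the two tested concentrations surrounding the appropriate level; five concentrations were tested over 48 hours in 96-well plates. Here, GI50 denotes the concentration required for 50% inhibition of growth.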 Calls of active or inactive are those of the source. No stated cut-off is given here; in the data, active = GI50 up to about 1.1 µM and inactive = higher. Where a SMILES comes first, the peptide text is derived from it. [ ]: non-standard residue; d: D form. The star is where a group is joined. Phe(4-NO2) = N[CH](Cc1ccc([N+](=O)[O-])cc1)C(=O)O; Boc = CC(C)(C)OC(=O)*

Key:
Assay in all cases: DTP human tumour cell line panel, 48 h
[1] = tested on: SR
[2] = tested on: OVCAR-5
[3] = tested on: SF-268
[4] = tested on: HCT-15
[5] = tested on: MDA-N
[6] = tested on: M14
[7] = tested on: NCI-H522
[8] = tested on: MCF7
[9] = tested on: PC-3
[10] = tested on: NCI-H226
[11] = tested on: BT-549
[12] = tested on: UO-31
[13] = tested on: 786-0
[14] = tested on: NCI/ADR-RES
[15] = tested on: UACC-257
[16] = tested on: MOLT-4
[17] = tested on: HT-29
[18] = tested on: RPMI-8226
[19] = tested on: OVCAR-4

Row | SMILES | GI50 [1] | GI50 [2] | GI50 [3] | GI50 [4] [µM] | GI50 [5] | GI50 [6] | GI50 [7] | GI50 [8] | GI50 [9] | GI50 [10] | GI50 [11] | GI50 [12] | GI50 [13] | GI50 [14] | GI50 [15] | GI50 [16] | GI50 [17] | GI50 [18] | GI50 [19]
1 | O=C1/C(=C/c2cccs2)N=C(c2ccccc2)N1c1nc2ccccc2s1 | 33.6 µM (inactive) | > 100 µM (inactive) | 7.74 µM (inactive) | 82.4 | 91.6 µM (inactive) | > 100 µM (inactive) | 4.14 µM (inactive) | 49.9 µM (inactive) | > 100 µM (inactive) | > 100 µM (inactive) | 53.3 µM (inactive) | 24.2 µM (inactive) | 41.3 µM (inactive) | 64.4 µM (inactive) | > 100 µM (inactive) | 11.7 µM (inactive) | 36.3 µM (inactive) | 7.45 µM (inactive) | 
2 | CC1(C)C2CCC(O)(C2)C1N (centres undefined) | > 100 µM (inactive) | > 100 µM (inactive) | > 100 µM (inactive) | > 100 | > 100 µM (inactive) | > 100 µM (inactive) |  | > 100 µM (inactive) | > 100 µM (inactive) | > 100 µM (inactive) | > 100 µM (inactive) | > 100 µM (inactive) | > 100 µM (inactive) | > 100 µM (inactive) | > 100 µM (inactive) | > 100 µM (inactive) | > 100 µM (inactive) | > 100 µM (inactive) | > 100 µM (inactive)
3 | COc1cc(CC(C)=O)cc(OC)c1 | 26.6 µM (inactive) | > 100 µM (inactive) | 71.1 µM (inactive) | 31.6 | 27.4 µM (inactive) | > 100 µM (inactive) |  | 34.2 µM (inactive) | 11.3 µM (inactive) | 50.9 µM (inactive) | 52.5 µM (inactive) | 32.6 µM (inactive) | > 100 µM (inactive) | 52.4 µM (inactive) | > 100 µM (inactive) | 24.7 µM (inactive) | 42.8 µM (inactive) | 27.8 µM (inactive) | > 100 µM (inactive)
4 | Clc1ccc(Oc2ccc(/N=C/c3ccc(Cl)cc3Cl)cc2Cl)cc1 |  | > 100 µM (inactive) | 31.8 µM (inactive) | 23.8 | 14.8 µM (inactive) | 29.4 µM (inactive) | 25.2 µM (inactive) | 33.7 µM (inactive) | 35 µM (inactive) | > 100 µM (inactive) | 29.2 µM (inactive) | 21.6 µM (inactive) | 22.4 µM (inactive) | 25.7 µM (inactive) | 66.1 µM (inactive) | 21.7 µM (inactive) | 36.9 µM (inactive) | 9.2 µM (inactive) | 44.5 µM (inactive)
5 | Cn1c2ccccc2c(=O)c2cccc(C(=O)NC(CS)C(=O)O)c21 (centres undefined) | 52.8 µM (inactive) | > 100 µM (inactive) | 93.5 µM (inactive) | > 100 | > 100 µM (inactive) | > 100 µM (inactive) |  | 40.9 µM (inactive) | > 100 µM (inactive) | 40.1 µM (inactive) | > 100 µM (inactive) | > 100 µM (inactive) | 81.1 µM (inactive) | 23.6 µM (inactive) | > 100 µM (inactive) | 63.4 µM (inactive) | > 100 µM (inactive) | 26.5 µM (inactive) | > 100 µM (inactive)
6 | C[C@H]1C(OCCOC2O[C@@H]3O[C@@]4(C)CC[C@H]5[C@H](C)CCC([C@H]2C)[C@@]35O4)O[C@@H]2O[C@@]3(C)CC[C@H]4[C@H](C)CCC1[C@@]24O3 (some centres undefined) | 32.2 µM (inactive) | 50.7 µM (inactive) | 50.5 µM (inactive) | 28.2 | 38.7 µM (inactive) | 32.1 µM (inactive) |  | 37 µM (inactive) | 28.5 µM (inactive) | 28.2 µM (inactive) | 95.7 µM (inactive) |  | 27 µM (inactive) | 25.1 µM (inactive) | 33.1 µM (inactive) | 58.6 µM (inactive) | 35.4 µM (inactive) | 58.6 µM (inactive) | 80.5 µM (inactive)
7 | CCOC(=O)CCC(NC(=O)C(Cc1ccc([N+](=O)[O-])cc1)NC(=O)OC(C)(C)C)C(=O)NC(CCC(=O)OCC)C(=O)OCC (centres undefined) (Boc-[Phe(4-NO2)]-Glu(OEt)-Glu(OEt)-OEt; configuration not given here) | 2.87 µM (inactive) | 20.7 µM (inactive) |  | 36 | 21.1 µM (inactive) | 16.8 µM (inactive) |  | 28 µM (inactive) | 19.7 µM (inactive) | 16.8 µM (inactive) | 22.2 µM (inactive) | > 100 µM (inactive) | 16.8 µM (inactive) |  | > 10 µM (inactive) | 2.73 µM (inactive) | 16.3 µM (inactive) | 18.1 µM (inactive) | 
8 | O=C1CCC(N2C(=O)c3ccccc3C2=O)C(=O)N1 (centres undefined) [THALIDOMIDE] | > 100 µM (inactive) | > 100 µM (inactive) | > 100 µM (inactive) | > 100 | > 100 µM (inactive) | > 100 µM (inactive) | > 100 µM (inactive) | > 100 µM (inactive) | > 100 µM (inactive) |  | > 100 µM (inactive) | > 100 µM (inactive) | > 100 µM (inactive) | > 100 µM (inactive) | > 100 µM (inactive) | > 100 µM (inactive) |  | > 100 µM (inactive) | > 100 µM (inactive)
